Results on one molecule are retold here after PMC12348844, “Anti-Trypanosoma cruzi Potential of New Pyrazole-Imidazoline Derivatives” (Molecules, 2025).

In series [1] the test system is T. cruzi Dm28c-Luc intracellular amastigotes. In words: Anti-T. cruzi in vitro assay, intracellular amastigotes in Vero cells (luminescence). It counts as cell-based, Trypanosoma cruzi. To be noted: for IC50: Vero. The procedure:
The genetically modified Trypanosoma cruzi, clone Dm28c (TcI), expressing luciferase (Dm28c-Luc), was kindly provided by Dr. Cristina Henriques from Oswaldo Cruz Institute—Fiocruz. The parasites were maintained using Vero cell cultures in RPMI 1640 medium enriched with 10% FBS. At 4 days post-infection (dpi), the trypomastigotes released into the culture supernatant were harvested, subjected to centrifugation at 800× g for 20 min at 4 °C, and quantified with a Neubauer chamber. The isolated trypomastigotes were subsequently used for phenotypic screening, drug efficacy assessments employing a 3D cardiac model, washout experiments to evaluate reversibility, drug combination studies, and enzymatic assays.
To evaluate the effect of pyrazole-imidazoline derivatives against intracellular amastigotes, Vero cells (1.5 × 10^4 cells/well) were cultured in a white 96-well plate with a clear bottom and subsequently infected with T. cruzi Dm28c-Luc at a 10:1 parasite-to-host cell ratio for 24 h. […] Parasite viability was measured by luminescence following the addition of luciferin (300 µg/mL). Background measurements (non-infected cultures incubated with luciferin, as well as luciferin-only controls) were performed to ensure the signal specifically originates from viable parasites. The IC50 and IC90 values, denoting the concentrations that achieve 50% and 90% reductions in viable parasites, respectively, were calculated using GraphPad Prism 8.2.1 software. Additionally, the selectivity index (SI) was calculated as the cytotoxic concentration (CC50) ratio in mammalian cells to the IC50 against T. cruzi, providing insight into the therapeutic window. Potency against intracellular amastigotes was evaluated using the formula 6—Log10 (IC50).

A short description of series [2]: Cytotoxicity in 3D cardiac spheroids (CellTiter-Glo). It counts as cell-based. To be noted: Swiss Webster, mouse, 3D cardiac spheroids from fetal heart muscle cells, 15.6 to 500 µM. On the procedure:
(§1) Three-dimensional (3D) heart muscle cell cultures were obtained as previously described. Briefly, heart muscle cells were isolated from 18-day-old Swiss Webster mouse fetuses. The ventricular tissue was fragmented and enzymatically dissociated using a trypsin and collagenase type II solution. The isolated cells were seeded at a density of 2.5 × 10^4 cells/well in 96-well U-bottom microplates previously coated with 1% agarose. The cells were cultured in Dulbecco’s modified Eagle Medium (DMEM) enriched with 10% FBS, 2.5 mM CaCl2, 1 mM L-glutamine, 2% chicken embryo extract, and a cocktail of antibiotics. The cultures were maintained at 37 °C in a 5% CO2 atmosphere. After a 7-day culture period, the resulting fully developed spheroids were used to assess drug-induced cardiotoxicity and evaluate their efficacy against T. cruzi. […]
The cytotoxicity of the promising candidate was assessed using 3D cardiac spheroids, seeded at 2.5 × 10^4 cells per well. The cultures were treated with a series of concentrations as previously described, and the cell viability was measured using luminescence following the addition of CellTiter-Glo reagent (Promega Corporation, Madison, WI, USA). […] The data shown represents the mean value accompanied by standard deviations, calculated from at least three independent experiments, each performed in duplicate.
Background: Cellular ATP, detected with luciferase, serves as a proxy for viable cell number.

The test system of series [3] is T. cruzi Dm28c-Luc in cardiac spheroids. Put plainly: Efficacy in T. cruzi-infected 3D cardiac microtissues. It counts as cell-based. The note with it: Trypanosoma cruzi, 72 h, read-out: inhibition of parasite load in infected cardiac spheroids. The procedure:
as §1, with “atmosphere.” for “atmosphere. After a 7-day culture period, the resulting fully developed spheroids were used to assess drug-induced cardiotoxicity and evaluate their efficacy against T. cruzi.”
The efficacy of the promising candidate was assessed using cardiac 3D microtissues. […] At the end of the experiment, luminescence was measured using a Glomax Multi-Detection plate reader (Promega Corporation, Madison, WI, USA) after adding luciferin solution, with results reported in arbitrary luminescence units (A.L.U). To enhance reliability and provide qualitative, orthogonal validation of these luminescence readings, we employed confocal fluorescence microscopy using 4′,6′-diamidino-2-phenylindole (DAPI) staining. […] Imaging was performed using a Zeiss LSM710 confocal fluorescence microscope (Carl Zeiss, Baden–Württemberg, Germany). […]

The subject of the next series is T. cruzi (Dm28c-Luc). Put plainly: Reversibility (washout) assay in T. cruzi-infected Vero cells. It counts as cell-based, Trypanosoma cruzi. To be noted: for parasite load of cell monolayer at 21 dpi (luminescence): untreated 5 × 10^5 A.L.U. On the procedure: After treatment, the cultures were thoroughly washed, and parasite recrudescence was evaluated over an extended period of 10 days in RPMI medium supplemented with 10% fetal bovine serum (FBS). Culture supernatants were collected at intervals, and the luminescence signal indicative of trypomastigote release was assessed using a Glomax Multi-Detection plate reader (Promega Corporation, Madison, WI, USA) following the addition of luciferin every 2–3 days. At the experiment’s conclusion, the infection profile of the monolayer was also examined. Cells were fixed with PFA for 20 min at 4 °C, then stained with DAPI for microscopy analysis. Luminescence data were expressed in arbitrary luminescent units (A.L.U), and fluorescence images were acquired using the ImageXpress Micro XLS high-content screening (HCS) system (Molecular Devices, Sunnyvale, CA, USA).

Where two headings read alike, the source gives them in different places.

For `FC(F)(F)c1ccc(-n2cc(C3=NCCN3)cn2)cc1` [1k, 1-(4-trifluoromethylphenyl)-4-(4,5-dihydro-1H-imidazol-2-yl)-1H-pyrazole], the “SI (selectivity index = CC50/IC50)” value in series [1] (CC50 Vero cells / IC50 intracellular amastigotes) is on record as 73.9. The IC50 was 3.3 ± 0.2 µM in series [1] (Trypanosoma cruzi, 72 h, Dm28c-Luc in Vero cells, mean ± SD, read-out: Intracellular Amastigotes IC50) and 3.98 µM in series [1] (Trypanosoma cruzi, intracellular amastigotes, 6 − Log10(IC50), read-out: pIC50 (potency) (converted)). Besides, the 90% effect concentration (IC90) in series [1] (Trypanosoma cruzi, 72 h, Dm28c-Luc in Vero cells, mean ± SD) is 28.1 ± 0.4 µM. For the same molecule, the “enhancement in anti-T. cruzi activity relative to the hit compound” value in series [1] (hit compound = 5-amino-pyrazole-imidazoline) is 5 fold. In series [2], this molecule returned a half-maximal cytotoxic concentration (CC50) at 72 h of 173 ± 6.8 µM. Besides, the inhibition at 28.8 µM amounted to 90% in series [3] (28.8 µM) and 92% in the series on T. cruzi (Dm28c-Luc) (Trypanosoma cruzi, Vero, 240 h, 28.8 µM (IC90), 10 days treatment + 10 days washout, read-out: inhibition of parasite load of cell monolayer at 21 dpi). Also, the inhibition at 57.6 µM in series [3] (57.6 µM) was determined as 94%. In addition, the results for the “parasite load of cell monolayer at 21 dpi (luminescence)” value in the series on T. cruzi (Dm28c-Luc) (28.8 µM) and with T. cruzi (Dm28c-Luc) (57.6 µM) were 4 × 10^4 A.L.U and 1.1 × 10^4 A.L.U, respectively. Moreover, the “sterility of cultures in reversibility assay” value with T. cruzi (Dm28c-Luc) (10 days treatment, tested conditions) was “failed to achieve sterility”.

For orientation: IC90 means the point of the concentration-response curve where the effect stands at 90%. What is called CC50 is the concentration giving 50% cytotoxicity. For orientation: inhibition means the change of the read-out against control, counted positive when it falls.
